Results: ChEMBL document CHEMBL4811258, “Potent Antimalarials with Development Potential Identified by Structure-Guided Computational Optimization of a Pyrrole-Based Dihydroorotate Dehydrogenase Inhibitor Series” (J Med Chem, 2021)
≈ marks a conversion by molar mass, not a printed value. Calls of active or inactive are those of the source. No cut-off for these calls is given here.

Key:
[1] = tested on: Plasmodium falciparum; experiment: microbe, parasite or virus in culture; conditions: 3D7, 72 h
[2] = molecular target: Cytochrome P450 3A4 (Homo sapiens, UniProt P08684)
Cytochrome P450 3A4, sequence (P08684 whole entry): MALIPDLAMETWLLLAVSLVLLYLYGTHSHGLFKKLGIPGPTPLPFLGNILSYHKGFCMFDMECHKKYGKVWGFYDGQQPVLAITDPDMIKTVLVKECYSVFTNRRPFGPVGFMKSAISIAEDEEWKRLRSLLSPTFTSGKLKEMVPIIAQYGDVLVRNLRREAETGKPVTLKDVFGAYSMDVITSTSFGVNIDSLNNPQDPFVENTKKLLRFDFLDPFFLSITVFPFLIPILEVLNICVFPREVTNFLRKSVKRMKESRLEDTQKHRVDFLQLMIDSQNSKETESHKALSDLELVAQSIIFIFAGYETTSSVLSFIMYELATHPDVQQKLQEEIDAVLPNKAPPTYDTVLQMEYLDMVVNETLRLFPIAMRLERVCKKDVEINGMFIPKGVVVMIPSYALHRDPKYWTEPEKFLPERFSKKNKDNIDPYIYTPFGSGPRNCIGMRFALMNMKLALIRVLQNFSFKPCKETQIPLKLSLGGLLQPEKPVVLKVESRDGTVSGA

[3] = Lipophilicity, logD of compound at pH 7.4; assay type: physicochemical; conditions: buffer
[4] = Inhibition of Plasmodium falciparum DHODH expressed in Escherichia coli BL21-DE3 using L-dihydroorotate as substrate by steady-state DCIP method
[5] = molecular target: Dihydroorotate dehydrogenase (quinone), mitochondrial (Homo sapiens, UniProt Q02127); assay type: ADME
Dihydroorotate dehydrogenase (quinone), mitochondrial, sequence (Q02127 whole entry): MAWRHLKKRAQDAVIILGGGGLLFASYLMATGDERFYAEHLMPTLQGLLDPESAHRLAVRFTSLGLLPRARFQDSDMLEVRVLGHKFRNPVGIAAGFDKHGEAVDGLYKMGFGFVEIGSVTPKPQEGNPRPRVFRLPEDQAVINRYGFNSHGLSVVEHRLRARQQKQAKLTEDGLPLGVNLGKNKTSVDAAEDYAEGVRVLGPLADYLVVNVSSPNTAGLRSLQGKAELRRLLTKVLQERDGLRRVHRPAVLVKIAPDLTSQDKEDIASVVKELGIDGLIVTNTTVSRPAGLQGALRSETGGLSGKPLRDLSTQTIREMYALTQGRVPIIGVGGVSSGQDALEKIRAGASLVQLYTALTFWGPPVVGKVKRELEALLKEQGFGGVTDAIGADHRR

[6] = Inhibition of Plasmodium vivax DHODH expressed in Escherichia coli BL21-DE3 using L-dihydroorotate as substrate by steady-state DCIP method
[7] = AUC (0 to infinity) in Sprague-Dawley rat at 19 mg/kg, po measured up to 24 hrs; assay type: ADME, organism-based; parameters: route oral, dose 19 mg/kg, time <=24; conditions: in vivo
[8] = physchem; conditions: FeSSIF, pH 5.8
[9] = in vitro; conditions: mouse, plasma
[10] = in vitro; conditions: human, plasma
[11] = Volume of distribution at steady state in Sprague-Dawley rat at […], iv measured up to 24 hrs; assay type: ADME, organism-based; conditions: in vivo, dose 2.6 mg/kg, read-out: Vdss
[12] = Oral bioavailability in Swiss mouse at 10 mg/kg measured up to 24 hrs by LC-MS analysis; assay type: ADME, organism-based; conditions: in vivo
[13] = Unbound intrinsic clearance in mouse liver microsomes at 1 uM measured up to 4 hrs by LC-MS analysis; assay type: ADME, Microsome
[14] = tested on: Plasmodium falciparum; experiment: Antimalarial activity against Plasmodium falciparum 3D70087/N9 infected in NOD-SCID IL2Rgamma null mouse assessed as parasitemia level at 10 mg/kg, po administered days after 3 post infection once daily for 4 days measured on day 7 by flow cytometry; assay type: functional, organism-based; conditions: time 4.0 day
[15] = tested on: Plasmodium falciparum; experiment: Antiplasmodial activity against Plasmodium falciparum 3D7 Uganda infected in human erythrocytes assessed as parasite killing using albumax media measured after 72 hrs by SYBR Green assay; assay type: functional, organism-based; conditions: 3D7, 72 h
[16] = in vitro; conditions: human, caco-2, pH 7.4
[17] = Half life in Swiss mouse at 10 mg/kg, po measured up to 24 hrs by LC-MS analysis; assay type: ADME, organism-based; conditions: in vivo
[18] = physchem; conditions: FaSSGF, pH 1.6
[19] = Tmax in Swiss mouse at 10 mg/kg, po measured up to 24 hrs by LC-MS analysis; assay type: ADME, organism-based; conditions: in vivo
[20] = in vitro; conditions: human, caco-2, pH 7.4; remark: listed apart in the source
[21] = Unbound AUC in orally dosed NOD-SCID IL2Rgamma null mouse infected with Plasmodium falciparum 3D70087/N9 administered days after 3 post infection once daily for 4 days measured on day 7 by flow cytometry; assay type: ADME, organism-based; conditions: in vivo, po, 96 h, time 4 day
[22] = Intrinsic clearance in mouse liver microsomes at 1 uM measured up to 4 hrs by LC-MS analysis; assay type: ADME, Microsome
[23] = Cmax in Swiss mouse at 10 mg/kg, po measured up to 24 hrs by LC-MS analysis; assay type: ADME, organism-based; parameters: route oral, dose 10 mg/kg, time <=24; conditions: in vivo
[24] = tested on: Plasmodium falciparum; experiment: Antiplasmodial activity against Plasmodium falciparum Dd2 Uganda infected in human erythrocytes assessed as parasite killing using albumax media measured after 72 hrs by SYBR Green assay; assay type: functional, organism-based; conditions: Dd2, 72 h
[25] = Plasma clearance in Sprague-Dawley rat at […], iv measured up to 24 hrs; assay type: ADME, organism-based; conditions: dose 2.6 mg/kg
[26] = tested on: Plasmodium falciparum; experiment: Antimalarial activity against Plasmodium falciparum 3D70087/N9 infected in orally dosed NOD-SCID IL2Rgamma null mouse assessed as parasitemia level in human red blood cells at 16.7 mg/kg, po administered days after 1 day post infection twice daily for 6 days measured on day 7 by flow cytometry; assay type: functional, organism-based; conditions: time 6.0 day
[27] = Oral bioavailability in Sprague-Dawley rat at 19 mg/kg measured up to 24 hrs; assay type: ADME, organism-based; conditions: in vivo
[28] = Apparent half life in Sprague-Dawley rat at 19 mg/kg, po measured up to 24 hrs; assay type: ADME, organism-based; conditions: in vivo, read-out: t1/2(app) (converted)
[29] = physchem; conditions: PBS, pH 7.4
[30] = tested on: Plasmodium falciparum; experiment: Antimalarial activity against Plasmodium falciparum 3D70087/N9 infected in orally dosed NOD-SCID IL2Rgamma null mouse assessed as parasitemia level administered days after 3 post infection once daily for 4 days measured on day 7 by flow cytometry; assay type: functional; conditions: time 4 day
[31] = tested on: Plasmodium falciparum; experiment: Antiplasmodial activity against Plasmodium falciparum Uganda field isolated from patients infected in human erythrocytes assessed as parasite killing using albumax media measured after 72 hrs by SYBR Green assay; assay type: functional, organism-based
[32] = Plasma clearance in Swiss mouse at 1 mg/kg, iv measured up to 24 hrs by LC-MS analysis; assay type: ADME, organism-based
[33] = molecular target: Albumin (Bos taurus, UniProt P02769); experiment: Binding affinity to bovine serum albumin by Albumax assay; assay type: ADME; conditions: cattle, isolated protein
Albumin, sequence (P02769 whole entry): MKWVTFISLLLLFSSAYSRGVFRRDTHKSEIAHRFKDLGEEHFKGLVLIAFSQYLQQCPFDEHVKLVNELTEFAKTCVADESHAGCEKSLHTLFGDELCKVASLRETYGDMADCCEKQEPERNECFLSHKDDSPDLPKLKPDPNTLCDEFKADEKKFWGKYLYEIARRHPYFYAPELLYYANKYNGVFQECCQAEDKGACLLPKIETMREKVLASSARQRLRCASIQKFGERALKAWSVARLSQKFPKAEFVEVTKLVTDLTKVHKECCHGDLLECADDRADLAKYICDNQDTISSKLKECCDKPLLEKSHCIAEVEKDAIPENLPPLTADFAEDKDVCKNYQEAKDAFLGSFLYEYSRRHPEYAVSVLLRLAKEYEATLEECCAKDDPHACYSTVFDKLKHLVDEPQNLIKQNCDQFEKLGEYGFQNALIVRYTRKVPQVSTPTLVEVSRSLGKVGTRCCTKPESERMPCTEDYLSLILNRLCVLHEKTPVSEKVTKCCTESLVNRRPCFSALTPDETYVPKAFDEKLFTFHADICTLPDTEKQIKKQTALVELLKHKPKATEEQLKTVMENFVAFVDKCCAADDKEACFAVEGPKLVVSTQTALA

[34] = physchem; conditions: FaSSIF, pH 6.5
[35] = Binding affinity to microsome (unknown origin); assay type: ADME; conditions: microsomes
[36] = in vitro; conditions: rat, plasma
[37] = Volume of distribution at steady state in Swiss mouse at 1 mg/kg, iv measured up to 24 hrs by LC-MS analysis; assay type: ADME, organism-based; conditions: in vivo, read-out: Vdss
[38] = Cmax in Sprague-Dawley rat at 19 mg/kg, po measured up to 24 hrs; assay type: ADME, organism-based; parameters: route oral, dose 19 mg/kg, time <=24; conditions: in vivo
[39] = Tmax in Sprague-Dawley rat at 19 mg/kg, po measured up to 24 hrs; assay type: ADME, organism-based; conditions: in vivo
[40] = AUC (0 to infinity) in Swiss mouse at 10 mg/kg, po measured up to 24 hrs by LC-MS analysis; assay type: ADME, organism-based; parameters: route oral, dose 10 mg/kg, time <=24; conditions: in vivo

Cc1c(C2(c3ccc(C(F)(F)F)nc3)CC2)c[nH]c1C(=O)NC(C)c1c[nH]cn1 (stereo in doubt; form 1)
EC50 [1]: 43000 nM
TDI [2]: Active

Cc1c(Cc2ccc(F)c3ccncc23)c[nH]c1C(=O)N1CC(F)(F)C1
logD [3]: < 3.4
IC50 [4]: 11 nM
IC50 [5]: > 100000 nM
EC50 [1]: 3.4 nM
IC50 [6]: 6.5 nM

Cc1c(Cc2cccc3ccncc23)c[nH]c1C(=O)NC1CC1
logD [3]: < 3.4
IC50 [4]: 11 nM
IC50 [5]: > 100000 nM
EC50 [1]: 2.2 nM
IC50 [6]: 16 nM

CCOC(=O)c1[nH]cc(Cc2ccc(C(F)(F)F)c3ncoc23)c1C
IC50 [4]: 47 nM
IC50 [5]: > 100000 nM
EC50 [1]: 24 nM
IC50 [6]: 16 nM

Cc1nc(C(C)NC(=O)c2[nH]cc(Cc3ccc(C(F)(F)F)nc3)c2C)n[nH]1 (racemic)
IC50 [4]: 680 nM
IC50 [5]: > 100000 nM
EC50 [1]: 380 nM
IC50 [6]: 320 nM

Cc1c(Cc2cccc3ccncc23)c[nH]c1C(=O)N1CC(F)(F)C1
logD [3]: < 3.4
IC50 [4]: 16 nM
IC50 [5]: > 100000 nM
EC50 [1]: 3.8 nM
IC50 [6]: 7.7 nM

CCOC(=O)c1[nH]cc(Cc2cccc3ncoc23)c1C
IC50 [4]: 100 nM
IC50 [5]: > 100000 nM
EC50 [1]: 220 nM
IC50 [6]: 13 nM

Cc1cc(C(C)NC(=O)c2[nH]cc(C(O)c3ccc(C(F)(F)F)nc3)c2C)no1 (racemic)
IC50 [4]: 180 nM
IC50 [5]: > 100000 nM
EC50 [1]: 22 nM
IC50 [6]: 130 nM

Cc1c(Cc2ccc(C(F)(F)F)nc2F)c[nH]c1C(=O)N1CC(F)(F)C1
IC50 [4]: 16 nM
IC50 [5]: > 100000 nM
EC50 [1]: 2.6 nM
IC50 [6]: 12 nM

Cc1cc(Nc2ccc(S(F)(F)(F)(F)F)cc2)n2nc(C(F)(F)F)nc2n1
AUC(0-inf) [7]: 120 µM·h
solubility at 5 h [8]: 27.6 µg/mL (≈ 65.8 µM)
fraction unbound [9]: 0.03
fraction unbound [10]: 0.002
Vd at 24 h [11]: 5.9 L/kg
bioavailability [12]: 46%
CL free [13]: < 25 µL/min/mg
Activity [14]: Active
IC50 [4]: 30 nM
EC50 [15]: 2.9 nM
Papp A→B [16]: 54 ×10⁻⁶ cm/s
half-life [17]: 2.5 h
solubility at 1 h [18]: 6.8 µg/mL (≈ 16.2 µM)
Tmax [19]: 1.2 h
Papp B→A [20]: 49 ×10⁻⁶ cm/s
fAUC [21]: 0.85 µM·h
Intrinsic clearance [22]: < 7 µL/min/mg
Cmax [23]: 3.1 µM
EC50 [24]: 2.9 nM
clearance at 24 h [25]: 6.5 mL/min/kg
Activity [26]: Active
bioavailability [27]: 57%
half-life [28]: 16 h
EC50 [1]: 6 nM
solubility at 5 h [29]: 2 µg/mL (≈ 4.77 µM)
ED50 [30]: 5.6 mg/kg
EC50 [31]: 3.7 nM
clearance [32]: 8.2 mL/min/kg
Activity [33]: 83.1%
solubility at 5 h [34]: 5.1 µg/mL (≈ 12.2 µM)
Activity [35]: 71.7%
fraction unbound [36]: 0.025
Vd [37]: 2.3 L/kg
Cmax [38]: 4 µM
Tmax [39]: 7 h
AUC(0-inf) [40]: 22.8 µM·h

Cc1c(-c2c[nH]c3nc(C(F)(F)F)ccc23)c[nH]c1C(=O)NC1CC1
IC50 [4]: 120 nM
IC50 [5]: > 100000 nM
EC50 [1]: 13 nM
IC50 [6]: 10 nM

Cc1c(C(=O)NC2CC2)[nH]c(Cl)c1Cc1ccc(C(F)(F)F)nc1
IC50 [4]: 120 nM
IC50 [5]: > 100000 nM
EC50 [1]: 32 nM
IC50 [6]: 17 nM
